Measurements from paper PMC5515887, “Ruthenium-conjugated chrysin analogues modulate platelet activity, thrombus formation and haemostasis with enhanced efficacy” (Scientific Reports, 2017).
Where two headings read alike, the source gives them in different places.

How the values were obtained:
washed human platelets = assay: Platelet uptake by LC-MS; format: in vitro ADME; conditions: 100 μM compound, 5 minutes
Description: The compounds taken up by the platelets were extracted with methanol (400 µL). The methanol extract was dried using vacuum centrifugation and reconstituted in 200 µL of methanol for mass spectrometry (LC-MS) analysis.

human washed platelets = assay: Intracellular calcium mobilisation in washed platelets (Fluo-4 AM); format: cell-based; conditions: CRP-XL 0.5 μg/mL
Description: Based on the above results achieved in washed platelets and PRP, chrysin and Ru-thio-chrysin were tested to evaluate their effects on the modulation of calcium mobilisation.
The calcium traces (Ai and Bi) shown are representative of three separate experiments. The maximum fluorescence obtained with each sample was converted into percentages to calculate the level of calcium mobilisation obtained with vehicle and chrysin or Ru-thio-chrysin treated samples.
The intracellular calcium levels in platelets were measured using Fluo-4 AM calcium-sensitive dye by spectrofluorimetry. […] Data were analysed by calculating the maximum level of calcium released in each sample.

platelets (PRP) = assay: LDH cytotoxicity assay in PRP; format: cell-based, human; conditions: between 6.25 and 100 μM
Description: In order to examine whether the native chrysin and its synthetic derivatives exert any cytotoxic effects in platelets at the concentrations used in this study, the lactate dehydrogenase (LDH) assay was performed using PRP.
The LDH cytotoxicity assay was performed using the LDH Cytotoxicity Assay Kit (Pierce, Thermo Fisher, UK) according to the manufacturer’s instructions. In brief, the PRP was incubated at 37 °C for 30 minutes. […] Following incubation, the reaction mixture (provided in the kit) was added to the PRP and incubated for 30 minutes. The reaction was then stopped using a stop solution provided in the kit. The absorbance of the mixture was measured at 490–650 nm using a Fluostar Optima spectrofluorimeter (BMG Labtech, Germany). Results provided represent duplicate absorbance measures from three separate donors.
Figure S7: Cytotoxic effects of chrysin and its synthetic derivatives in platelets. PRP was treated with different concentrations (as used in other experiments) of chrysin or its synthetic derivatives and the LDH cytotoxicity assay was performed according to the manufacturer’s instructions. The data were obtained using platelets from three separate donors and duplicate measures were used for each donor.
(1 picture or pasted object on this page, not shown here)

[1] = tested on: outside-in signalling by integrin αIIbβ3; assay: Clot retraction assay (outside-in signalling by integrin αIIbβ3); format: cell-based, human; conditions: PRP; 50 μM compound; 1 U/mL thrombin; three hours
Description: R represents ‘resting’ platelets.
Following fibrinogen binding, integrin αIIbβ3 triggers signalling into the platelets in order to induce clot retraction and promote wound healing. This also represents a late downstream signalling event in the platelet activation process. To determine whether chrysin and its derivatives affect outside-in signalling by integrin αIIbβ3, a clot retraction assay was performed. […] At three hours, the clot obtained with the vehicle control [0.1% (v/v) DMSO] retracted to around 50 mg.
PRP (200 µL) was mixed with 5 µL of red blood cells and the final volume was made to 950 µL with modified Tyrodes-HEPES buffer in the presence and absence of various concentrations of chrysin or its synthetic derivatives. Clot formation was initiated by adding 1 U/mL (50 µL) thrombin. A glass capillary was placed in middle of the tube and the clot retraction was observed over a period of 3 hours at room temperature. Clot weight was measured as a marker for clot retraction after 3 hours.

[2] = tested on: human platelet-rich plasma; conditions: PRP; 100 μM compound; CRP-XL 0.5 μg/mL
Description: The calcium traces (Ai and Bi) shown are representative of three separate experiments. […] The platelets were lysed and used for immunoblot analysis to detect the level of AKT phosphorylation at residue S473, FAK phosphorylation at Y397 and phosphorylation of Src at Y527. The level of 14-3-3ζ protein was detected as a loading control. The cropped images of the blots shown here are representative of three separate experiments. The uncropped full length blots are presented in Supplementary Information (Figure S8).

[3] = tested on: inside-out signalling to integrin αIIbβ3; conditions: PRP, CRP-XL 0.5 μg/mL
Description: The level of fluorescence obtained with vehicle control was taken as 100% to calculate the extent of inhibition in chrysin and its derivatives-treated samples. R represents ‘resting’ platelets. Cumulative data represent mean ± S.D. (n = 4). […] Following incubation, clotting was initiated by the addition of 1 U/mL thrombin and the clot retraction was monitored for three hours. The remaining clot weight at three hours was measured to analyse the extent of retraction process. The image shown on the right is representative of four separate experiments. *Indicates significance with respect to controls and ^#indicates significance with respect to the respective chrysin concentrations; p values shown (*^,# p < 0.05, **^,## p < 0.01 and ***^,### p < 0.001) are as calculated by one-way ANOVA using Graphpad Prism.
The platelets (PRP) were treated with a vehicle control [0.1% (v/v) DMSO] or with different concentrations of chrysin and its synthetic derivatives prior to activation with CRP-XL (0.5 µg/mL). The levels of fibrinogen binding and P-selectin exposure were measured using FITC-labelled anti-human fibrinogen antibodies (Dako, UK) and PECy5-labelled CD62P antibodies (BD Biosciences, UK), respectively. The median fluorescence intensity was used to assess the levels of fibrinogen binding and P-selectin exposure on the platelet surface. The level of fluorescence obtained with the vehicle control was taken as 100% when compared with the treated samples.

O=c1cc(-c2ccccc2)oc2cc(O)cc(O)c12 [chrysin]
uptake in platelets (washed human platelets): 6.86 ± 0.27 µM
effect on calcium mobilisation in washed platelets (human washed platelets): greater inhibitory effects on calcium mobilisation than Ru-thio-chrysin
cytotoxic effects in platelets (LDH) (platelets (PRP)): did not show significant cytotoxic effects
effect on clot retraction [1]: did not show significant effects

chlorido [(5-oxo-κO)-7-hydroxy-(2-phenyl)-4H-chromen-4-thionato-κS] (η6-p-cymene)ruthenium(II) [Ru-thio-chrysin]
reduction in calcium mobilisation [2]: around 60%
effect on clot retraction [1]: superior effects in comparison to native chrysin
inhibition of fibrinogen binding ([3]; 6.25 μM compound): 15–20%
inhibition of fibrinogen binding ([3]; 100 μM compound): ~90%
